Starred links: 1 amine or outer side, 2 acyl side, 3 side chain; linkers in the order of their positions; H or OH if unused. Non-standard residues stand in square brackets, D forms with d. Residues, ends and D or L forms follow the SMILES beside them. Groups on a side chain read outwards from the residue. *: point of attachment. C20 diacid = O=C(O)CCCCCCCCCCCCCCCCCCC(=O)*; γGlu = O=C(O)[C@H](CCC(=O)[*:2])N[*:1]; NMeI = CC[C@H](C)[C@H](NC)C(=O)O; Nle = CCCC[C@H](N)C(=O)O; AEEA = NCCOCCOCC(=O)O; Aib = CC(C)(N)C(=O)O
Columns and labels:
[1] = Size exclusion chromatography for high molecular weight products (HMWP); format: physicochemical; details: for HMWP formation (SEC analysis) T14-T0 (%): 14 days; for HMWP formation (SEC analysis) T28-T0 (%): 28 days
Procedure: Dissolved samples were incubated for at least 2 h at room temperature on a rocking table. The main peak purity at time zero (T0) was determined using reversed phase chromatography. The samples were incubated at 40°C for 14 days (T14) and 28 days (T28). The samples were analyzed with reversed phase chromatography and size exclusion chromatography.
Size exclusion chromatography (SEC) was used as an analysis for the formation of high molecular weight products (HMWP, covalent dimers, trimers etc.,). SEC analyses was performed on Thermo Dionex Ultimate UHPLC system with UV detection at 215 nm) equipped with a SEC column (Waters BEH 125Å, 1.7 µm, 300mm x 4.6). Analysis was performed by isocratic elution using 60% buffer B (0.1% TFA in 5:95 H2O: acetonitrile) in buffer A (0.1% TFA in 95:5 H2O: acetonitrile) at a column temperature of 60° C over 20 min. Flowrate was 0.3 mL/min.
Chromatograms were integrated as HMWP (all peaks eluting before the main peak), main peak (assuming this is monomeric peptide) and if relevant LMWP (low molecular weight products, all peaks eluting after main peak). The amount of HMWP was reported as area relative to total area in percent.

[2] = target: T1, hCRHR2a (Homo sapiens, UniProt Q13324); experiment: cAMP potency, transiently transfected CHO-K1 cells, hCRHR2a; format: cell-based; details: transiently transfected CHO-K1, average n=3; read-out: Transient cell system EC50 (nM) hCRHR 2a
T1 construct: DYK (FLAG); host or cells: CHO-K1, transiently transfected
T1 sequence (Q13324 1-411): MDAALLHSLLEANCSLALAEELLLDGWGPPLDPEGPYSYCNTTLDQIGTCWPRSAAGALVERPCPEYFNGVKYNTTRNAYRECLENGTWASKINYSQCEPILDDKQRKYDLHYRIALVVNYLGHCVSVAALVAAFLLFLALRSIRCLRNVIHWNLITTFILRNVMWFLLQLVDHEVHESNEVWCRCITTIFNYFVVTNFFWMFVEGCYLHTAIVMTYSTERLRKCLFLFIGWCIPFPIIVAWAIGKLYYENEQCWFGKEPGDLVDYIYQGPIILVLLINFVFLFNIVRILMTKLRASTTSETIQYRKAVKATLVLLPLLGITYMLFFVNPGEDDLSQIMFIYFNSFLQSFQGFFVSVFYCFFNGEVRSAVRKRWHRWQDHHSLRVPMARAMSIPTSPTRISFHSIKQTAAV

[3] = target: T2, hCRHR2b (Homo sapiens, UniProt Q13324); experiment: cAMP potency, transiently transfected CHO-K1 cells, hCRHR2b; format: cell-based; details: transiently transfected CHO-K1, average n=3; read-out: Transient cell system EC50 (nM) hCRHR 2b
T2 construct: DYK (FLAG); host or cells: CHO-K1, transiently transfected
T2 sequence (Q13324 1-438 isoform Q13324-2): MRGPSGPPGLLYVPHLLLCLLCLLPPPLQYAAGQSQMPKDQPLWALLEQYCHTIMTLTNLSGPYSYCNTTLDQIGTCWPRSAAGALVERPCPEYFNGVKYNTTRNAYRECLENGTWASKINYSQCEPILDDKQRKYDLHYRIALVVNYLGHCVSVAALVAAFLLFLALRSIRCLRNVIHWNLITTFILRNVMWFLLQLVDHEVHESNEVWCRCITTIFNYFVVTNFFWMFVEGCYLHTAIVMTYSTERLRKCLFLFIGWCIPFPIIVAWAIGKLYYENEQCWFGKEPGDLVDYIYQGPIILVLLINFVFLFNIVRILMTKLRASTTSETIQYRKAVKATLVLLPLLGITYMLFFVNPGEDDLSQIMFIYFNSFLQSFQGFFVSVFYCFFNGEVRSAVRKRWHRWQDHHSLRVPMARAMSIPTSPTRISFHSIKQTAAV

[4] = target: T3, rCRHR2 (Rattus norvegicus, UniProt P47866); experiment: cAMP potency, transiently transfected CHO-K1 cells, rCRHR2; format: cell-based; details: transiently transfected CHO-K1, average n=3; read-out: Transient cell system EC50 (nM) rCRHR 2
T3 construct: DYK (FLAG); host or cells: CHO-K1, transiently transfected
T3 sequence (P47866 whole entry): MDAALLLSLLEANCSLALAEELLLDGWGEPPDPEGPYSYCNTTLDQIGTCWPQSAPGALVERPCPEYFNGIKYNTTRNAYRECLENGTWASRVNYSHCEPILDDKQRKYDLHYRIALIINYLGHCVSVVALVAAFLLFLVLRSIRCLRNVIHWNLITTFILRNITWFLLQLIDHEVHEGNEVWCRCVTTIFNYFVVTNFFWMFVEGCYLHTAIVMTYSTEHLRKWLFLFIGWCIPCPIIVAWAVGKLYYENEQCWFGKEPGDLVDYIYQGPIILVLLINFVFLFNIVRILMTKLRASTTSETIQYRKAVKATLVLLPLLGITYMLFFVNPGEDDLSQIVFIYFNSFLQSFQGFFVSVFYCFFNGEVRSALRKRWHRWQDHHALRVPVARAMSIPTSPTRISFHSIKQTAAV
Procedure: Selected peptides were tested for potency on different species (mouse, rat, porcine) using transiently transfected CHO-K1 cells using the general procedure.

[5] = target: T4, hCRHR1 (Homo sapiens, UniProt P34998); experiment: cAMP potency, transiently transfected CHO-K1 cells, hCRHR1; format: cell-based; parameters: DYK (FLAG); host or cells: CHO-K1, transiently transfected; details: transiently transfected CHO-K1, average n=3; read-out: Transient cell system EC50 (nM) hCR HR1
T4 sequence (P34998 24-415): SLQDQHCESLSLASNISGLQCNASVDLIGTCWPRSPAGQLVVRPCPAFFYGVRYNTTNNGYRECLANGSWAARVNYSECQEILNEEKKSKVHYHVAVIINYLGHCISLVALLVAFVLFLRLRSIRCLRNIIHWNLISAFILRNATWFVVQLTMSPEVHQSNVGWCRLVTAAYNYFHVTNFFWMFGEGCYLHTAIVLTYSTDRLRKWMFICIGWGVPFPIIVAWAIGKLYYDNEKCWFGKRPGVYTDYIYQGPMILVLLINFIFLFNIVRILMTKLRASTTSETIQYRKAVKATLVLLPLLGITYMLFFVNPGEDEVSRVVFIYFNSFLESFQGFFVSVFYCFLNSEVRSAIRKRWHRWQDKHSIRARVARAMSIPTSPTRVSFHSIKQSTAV

[6] = Dynamic Light Scattering (DLS) of peptide oligomerisation/particle formation; format: physicochemical; details: average of three replica
Procedure: Samples were prepared by dissolving 800 nmol of each peptide in 400 µl 50 mM phosphate pH 8.0 to a concentration of 2000 µM (ca 10 mg/ml). After fully dissolution for 2 hours on a rocking table, samples were adjusted to pH 7.5 and filtrated through a 0.2 µm Whatman Anotop filter. Comparators were commercially available liraglutide drug product (Victoza®, Novo Nordisk) pH 8.2, and an aliquot of this drug product adjusted to pH 6.7. These samples were filtrated through a 0.02 µm Whatman Anotop filter.
Samples were pipetted as triplicate of 30 µl to an Aurora 384 well microtiter plate, which was centrifuged for 2 minutes at 2200 rpm and then sealed with a Thermo sealing tape 235307. DLS measurements were done in a Wyatt DynaPro platereader III with the following parameters:
The microtiter plate was incubated in a Grant-bio Thermo Shaker PHMP-4 at 40°C with 700 rpm continuous shaking before subsequent DLS measurements. Data analysis was done using Wyatt Dynamics software ver. 7.10.1.21.
Samples were prepared and measured as described in procedure. The hydrodynamic radii (Rh) and associated polydispersity (PD) resulting from cumulant analysis (assuming one species) are shown in the Table 8 as averages of three replica. T0 indicates the measurement at time zero after sample preparation; T5 indicates the measurements of five days of incubation as described above.

[7] = T0, time zero after sample preparation
[8] = T5, five days incubation at 40°C with continuous shaking

Row | Compound | HMWP formation (SEC analysis) T14-T0 (%) ([1]; pH 7.0, 40°C) | HMWP formation (SEC analysis) T28-T0 (%) ([1]; pH 7.0, 40°C) | HMWP formation (SEC analysis) T14-T0 (%) ([1]; pH 7.5, 40°C) | HMWP formation (SEC analysis) T28-T0 (%) ([1]; pH 7.5, 40°C) | HMWP formation (SEC analysis) T14-T0 (%) ([1]; pH 8.0, 40°C) | HMWP formation (SEC analysis) T28-T0 (%) ([1]; pH 8.0, 40°C) | EC50 [2] [nM] | EC50 [3] [nM] | EC50 [4] [nM] | EC50 [5] [nM] | PD (%) [6, 7] [%] | Rh (nm) [6, 7] [nm] | PD (%) [6, 8] [%] | Rh (nm) [6, 8] [nm]
1 | CCCC[C@H](NC(=O)[C@@H](NC(=O)[C@H](CCC(=O)O)NC(=O)[C@H](C)NC(=O)[C@H](CC(N)=O)NC(=O)C(C)(C)NC(=O)[C@H](CCCCNC(=O)COCCOCCNC(=O)COCCOCCNC(=O)CC[C@H](NC(=O)CC[C@H](NC(=O)CCCCCCCCCCCCCCCCCCC(=O)O)C(=O)O)C(=O)O)NC(=O)[C@H](C)NC(=O)[C@H](CCC(N)=O)NC(=O)[C@H](CCC(=O)O)NC(=O)[C@H](CCCNC(=N)N)NC(=O)[C@H](C)NC(=O)[C@H](C)NC(=O)[C@H](CCCNC(=N)N)NC(=O)[C@H](C)NC(=O)[C@H](CCCNC(=N)N)NC(=O)[C@H](C)NC(=O)[C@H](CCC(N)=O)NC(=O)[C@H](CO)NC(=O)[C@H](CC(C)C)NC(=O)[C@H](CC(C)C)NC(=O)[C@@H](NC(=O)[C@H](CCC(N)=O)NC(=O)[C@H](CC(C)C)NC(=O)[C@H](CC(C)C)NC(=O)CNC(=O)[C@@H](NC(=O)[C@@H]1CCCN1C(=O)[C@@H](NC(=O)[C@H](CC(=O)O)NC(=O)[C@H](CC(C)C)NC(=O)[C@H](CO)NC(=O)[C@H](CC(C)C)NC(=O)[C@@H](NC(=O)[C@@H]1CCCN1)C(C)C)C(C)C)[C@@H](C)CC)[C@@H](C)CC)[C@@H](C)CC)C(=O)N[C@@H](C)C(=O)N[C@@H](CCC(=O)O)C(=O)N[C@H](C(N)=O)C(C)C [SEQ ID NO: 238] (H-PVLSLDVPIGLLQILLSQARARAAREQAK([AEEA-AEEA-γGlu-γGlu-C20 diacid])[Aib]NAEI[Nle]AEV-NH2) | 0.3 | 0.5 | 0.4 | 0.4 | -0.1 | 0.2 | 0.018 | 0.016 | 0.067 | > 5000 | 5.3 | 4.8 | 8.1 | 4.8
2 | CC[C@H](C)[C@H](NC)C(=O)N[C@H](C(=O)N[C@@H](CC(C)C)C(=O)N[C@@H](CO)C(=O)N[C@@H](CC(C)C)C(=O)N[C@@H](CC(=O)O)C(=O)N[C@H](C(=O)N1CCC[C@H]1C(=O)N[C@H](C(=O)NCC(=O)N[C@@H](CC(C)C)C(=O)N[C@@H](CC(C)C)C(=O)N[C@@H](CCC(N)=O)C(=O)N[C@H](C(=O)N[C@@H](CC(C)C)C(=O)N[C@@H](CC(C)C)C(=O)N[C@@H](CCC(=O)O)C(=O)N[C@@H](CCC(N)=O)C(=O)N[C@@H](C)C(=O)N[C@@H](CCCNC(=N)N)C(=O)N[C@@H](C)C(=O)N[C@@H](CCCNC(=N)N)C(=O)N[C@@H](C)C(=O)N[C@@H](C)C(=O)N[C@@H](CCCNC(=N)N)C(=O)N[C@@H](CCC(=O)O)C(=O)N[C@@H](CCC(N)=O)C(=O)N[C@@H](C)C(=O)N[C@@H](CCCCNC(=O)COCCOCCNC(=O)COCCOCCNC(=O)CC[C@H](NC(=O)CC[C@H](NC(=O)CCCCCCCCCCCCCCCCCCC(=O)O)C(=O)O)C(=O)O)C(=O)N[C@H](C(=O)N[C@@H](CC(N)=O)C(=O)NC(C)(C)C(=O)N[C@@H](CCC(=O)O)C(=O)N[C@H](C(=O)N[C@@H](CC(C)C)C(=O)N[C@@H](C)C(=O)N[C@@H](CCC(=O)O)C(=O)N[C@H](C(N)=O)C(C)C)[C@@H](C)CC)[C@@H](C)O)[C@@H](C)CC)[C@@H](C)CC)C(C)C)C(C)C [SEQ ID NO: 16] (H-[NMeI]VLSLDVPIGLLQILLEQARARAAREQAK([AEEA-AEEA-γGlu-γGlu-C20 diacid])TN[Aib]EILAEV-NH2) | -0.3 | -0.3 | 0.0 | 0.0 | -0.2 | -0.3 | 0.025 | 0.012 | 0.19 | > 1000 | 10.5 | 4.7 | 11.6 | 4.7
